In brackets after ≈: the same amount, converted by molar mass. Read-outs that look alike come from different tables or passages of the source. Each block holds one compound with its values, some of them ahead of it.
How the values were obtained:
[1] = molecular target: P99 (class C β-lactamase) (Enterobacter cloacae, UniProt P05364); test: β-Lactamase assay (nitrocefin colour change), P99; format: biochemical; conditions: Table 10; class symbols x/xx/xxx, key not given
Method: (§1) β-Lactamase Assays (TEM-1, P99, and OXA-10): The activity of the compounds of the invention (inhibitors) toward β-lactamases was evaluated using 96 well plates. The reaction mixture included 10 mM sodium phosphate, pH 7.0, 150 mM sodium chloride, 0.01% Triton X-100, 100 μM nitrocefin, 10 nM of β-lactamases (class A: TEM-1; class C: P99, or class D: OXA-10), and variable concentrations of the inhibitors in a total volume of 100 μL. β-Lactamases were pre-incubated with the compounds at room temperature for 5 minutes, and the assay was initiated by the addition of nitrocefin. The inhibition of the enzyme activity by the compounds was determined by monitoring color change (from yellow to red) of nitrocefin after 20 minutes. Stock solutions of the compounds were prepared in dimethyl sulfoxide (DMSO). No more than 5% DMSO was present in assays, unless noted otherwise. B1aR Assay: The surface domain of B1aR (1 μM) was added to each inhibitor (at various concentrations) in 100 mM sodium phosphate, 50 mM sodium bicarbonate, at pH 7.0. The reaction mixtures were incubated at room temperature for 20 minutes. BOCILLIN FL, a fluorogenic ligand, was added to a concentration of 20 μM in a final volume of 20 μL. The mixtures were incubated at 37° C. for 5 minutes, at which point the reactions were quenched by the addition of 15 μL of the SDS sample buffer (125 mM Tris, 4% SDS, 20% glycerol, 2% 2-mercaptoethanol, pH 6.8), and were boiled for 4 minutes. The samples were loaded onto 15% SDS-PAGE, the gel was developed and scanned using a Storm 840® Fluorimager. The fluorescent bands of BOCILLIN FL-labeled B1aR^S were analyzed by Image Quant 5.2 software. PBP2 Assay: The PBP2 assay was performed according to the methods of Villegas-Esterada et al. (J. Am. Chem. Soc. 2008, 130, 9212-9213).

S. aureus NRS11 (Mec^S) = test: MIC against S. aureus NRS11 (Table 13); format: cell-based, Staphylococcus aureus; conditions: for MIC: compounds dissolved in DMSO or 1% sodium carbonate
Method: All recited compounds were dissolved in DMSO or in 1% sodium carbonate and transferred to micro titer plates to final concentrations of 1000 μg/mL.

S. aureus NRS100 (Mec^R) = test: MIC against S. aureus NRS100 (Table 14); format: cell-based, Staphylococcus aureus; conditions: for MIC: compounds dissolved in DMSO or 1% sodium carbonate
Method: The recited compounds were dissolved in DMSO or in 1% sodium carbonate and transferred into micro titer plate to final concentration of 1000 μg/mL.

[2] = molecular target: OXA-10 (class D β-lactamase) (Pseudomonas aeruginosa, UniProt P14489); test: β-Lactamase assay (nitrocefin colour change), OXA-10; format: biochemical; conditions: Table 10; class symbols x/xx/xxx, key not given
Method: as §1

[3] = molecular target: TEM-1 (class A β-lactamase) (Escherichia coli, UniProt P62593); test: β-Lactamase assay (nitrocefin colour change), TEM-1; format: biochemical; conditions: Table 10; class symbols x/xx/xxx, key not given
Method: as §1

[4] = Staphylococcus aureus, read-out: MIC

Sequence of OXA-10 (class D β-lactamase) (P14489 20-266, species assumed): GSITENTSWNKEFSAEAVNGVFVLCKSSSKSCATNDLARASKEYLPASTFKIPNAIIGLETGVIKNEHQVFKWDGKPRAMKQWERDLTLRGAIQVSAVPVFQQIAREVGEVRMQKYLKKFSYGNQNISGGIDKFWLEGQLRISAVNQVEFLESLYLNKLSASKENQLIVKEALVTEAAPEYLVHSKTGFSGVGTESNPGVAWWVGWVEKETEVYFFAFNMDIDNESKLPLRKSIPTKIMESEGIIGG
Sequence of P99 (class C β-lactamase) (P05364 21-381): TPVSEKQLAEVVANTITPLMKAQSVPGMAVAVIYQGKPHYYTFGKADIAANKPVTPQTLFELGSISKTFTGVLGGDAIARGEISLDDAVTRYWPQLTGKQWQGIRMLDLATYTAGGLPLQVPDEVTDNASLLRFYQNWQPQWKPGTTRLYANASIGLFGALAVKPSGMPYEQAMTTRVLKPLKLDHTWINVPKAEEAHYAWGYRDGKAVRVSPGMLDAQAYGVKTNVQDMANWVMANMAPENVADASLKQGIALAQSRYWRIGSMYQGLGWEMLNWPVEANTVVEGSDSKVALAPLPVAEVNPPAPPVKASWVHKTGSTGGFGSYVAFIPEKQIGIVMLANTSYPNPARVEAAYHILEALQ
Sequence of TEM-1 (class A β-lactamase) (P62593 24-286 limits assumed): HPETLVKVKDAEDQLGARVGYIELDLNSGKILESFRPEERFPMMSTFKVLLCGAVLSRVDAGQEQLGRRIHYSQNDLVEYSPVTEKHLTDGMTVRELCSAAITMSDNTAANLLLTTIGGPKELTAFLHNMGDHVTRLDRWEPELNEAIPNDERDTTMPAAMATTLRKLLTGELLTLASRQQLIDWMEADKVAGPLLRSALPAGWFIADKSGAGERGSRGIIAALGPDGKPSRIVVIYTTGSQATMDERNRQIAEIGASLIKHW

SMILES: CC(=O)OCC1=C(C(=O)O)N2C(=O)C(N3C(=O)C4=C(SCCS4)C3=O)C2SC1 (stereo not drawn) [Compound 118]
P99 [1]: xxx

SMILES: O=C(O)CC1(CC(=O)Nc2ccc(Cl)c(C(F)(F)F)c2)CCCC1 [Compound 246]
OXA-10 [2]: xx

SMILES: O=C(O)c1ccncc1C(=O)Nc1ccc(OCc2cccc(OC(F)(F)F)c2)c(Cl)c1 [Compound 424]
MIC (S. aureus NRS100 (Mec^R); [4]): > 250 µg/mL

SMILES: O=C1C2=C(SCCS2)C(=O)N1C(CO)[C@H](O)c1ccccc1 (stereo partly drawn) [Compound 138]
TEM-1 [3]: xxx | P99 [1]: xxx

SMILES: O=C(O)c1cccc([N+](=O)[O-])c1C(=O)Nc1ccc(OCc2cccc(OC(F)(F)F)c2)c(Cl)c1 [Compound 421]
MIC (S. aureus NRS100 (Mec^R); [4]): 250 µg/mL (≈ 489 µM)

SMILES: CCCCCCCCOc1ccc(NC(=O)c2c(Br)c(Br)c(Br)c(Br)c2C(=O)O)c[n+]1[O-] [Compound 360]
OXA-10 [2]: xxx | TEM-1 [3]: xx

SMILES: O=C(O)c1c(F)c(F)c(F)c(F)c1C(=O)Nc1ccc(OCc2cccc(C(F)(F)F)c2)c(Cl)c1 [Compound 388]
OXA-10 [2]: xx | TEM-1 [3]: xx | MIC (S. aureus NRS11 (Mec^S); [4]): 128 µg/mL (≈ 245 µM) | MIC (S. aureus NRS100 (Mec^R); [4]): 128 µg/mL (≈ 245 µM)

SMILES: O=C(O)c1c(Br)c(Br)c(Br)c(Br)c1C(=O)Nc1ccc(OCc2ccccc2)nc1 [Compound 365]
OXA-10 [2]: xx | MIC (S. aureus NRS11 (Mec^S); [4]): 8 µg/mL (≈ 12 µM) | inhibitory properties (in words) (S. aureus NRS11 (Mec^S); Table 13): significant inhibitory properties | MIC (S. aureus NRS100 (Mec^R); [4]): 16 µg/mL (≈ 24.1 µM) | inhibitory activity (in words) (S. aureus NRS100 (Mec^R); Table 14): significant inhibitory activity

SMILES: CCCCCCCCOc1ccc(N(C)C(=O)c2c(Cl)c(Cl)c(Cl)c(Cl)c2C(=O)OC)cc1 [Compound 282]
OXA-10 [2]: xxx

SMILES: NC(=O)C1=C(C(=O)O)SCCS1 [Compound 120]
OXA-10 [2]: xx

SMILES: O=C(O)c1c(Cl)c(Cl)c(Cl)c(Cl)c1C(=O)Nc1ccc(Cl)c(C(F)(F)F)c1 [Compound 258]
OXA-10 [2]: xx | TEM-1 [3]: xxx | P99 [1]: xx

SMILES: CC(Oc1ccc(NC(=O)c2ccccc2C(=O)O)cc1Cl)c1ccccc1 (stereo not drawn) [Compound 379]
MIC (S. aureus NRS11 (Mec^S)): >2,000 μg/mL | MIC (S. aureus NRS100 (Mec^R)): >2,000 μg/mL

SMILES: O=C(O)c1c(Cl)c(Cl)c(Cl)c(Cl)c1C(=O)Nc1cccc(Oc2ccccc2)c1 [Compound 268]
TEM-1 [3]: xxx | P99 [1]: xx

SMILES: O=C1C2=C(SCCS2)C(=O)N1[C@@H](CO)[C@@H](O)c1ccc([N+](=O)[O-])cc1 [Compound 140]
OXA-10 [2]: xx | TEM-1 [3]: xx | P99 [1]: xx

Next, values leading:

MIC (S. aureus NRS11 (Mec^S); [4]): 256 µg/mL (≈ 579 µM) | MIC (S. aureus NRS100 (Mec^R); [4]): 256 µg/mL (≈ 579 µM)
SMILES: CCCCCCCCOc1ccc(NC(=O)c2c(F)c(F)c(F)c(F)c2C(=O)O)cn1 [Compound 344]

MIC (S. aureus NRS11 (Mec^S); [4]): 2000 µg/mL (≈ 4840 µM) | MIC (S. aureus NRS100 (Mec^R); [4]): 2000 µg/mL (≈ 4840 µM)
SMILES: CCCCOC(=O)c1ccc(NC(=O)c2c(F)c(F)c(F)c(F)c2C(=O)O)cc1 [Compound 332]

OXA-10 [2]: xx | P99 [1]: xx | MIC (S. aureus NRS100 (Mec^R); [4]): 16 µg/mL (≈ 35.1 µM)
SMILES: CCCCCCCCOc1ccc(N(C)C(=O)c2c(F)c(F)c(F)c(F)c2C(=O)O)cc1 [Compound 305]

MIC (S. aureus NRS11 (Mec^S)): >2,000 μg/mL | MIC (S. aureus NRS100 (Mec^R)): >2,000 μg/mL
SMILES: O=C(O)c1c(F)c(F)c(F)c(F)c1C(=O)Nc1ccc(OCc2ccccc2)nc1 [Compound 363]

MIC (S. aureus NRS100 (Mec^R); [4]): 16 µg/mL (≈ 62.6 µM)
SMILES: CCCCCCCCOc1ccc(N)cc1Cl [Compound 299]

MIC (S. aureus NRS11 (Mec^S)): >2,000 μg/mL | MIC (S. aureus NRS100 (Mec^R)): >2,000 μg/mL
SMILES: COCCOCCOc1ccc(NC(=O)c2c(F)c(F)c(F)c(F)c2C(=O)O)cn1 [Compound 401]

OXA-10 [2]: xxx
SMILES: CCCCCCCCOc1ccc(NC(=O)c2c(Cl)c(Cl)c(Cl)c(Cl)c2C(=O)O)c[n+]1[O-] [Compound 358]

MIC (S. aureus NRS11 (Mec^S); [4]): 1000 µg/mL (≈ 2180 µM) | MIC (S. aureus NRS100 (Mec^R); [4]): 1000 µg/mL (≈ 2180 µM)
SMILES: CCCCCCCCOc1ccc(NC(=O)c2c(F)c(F)c(F)c(F)c2C(=O)O)c[n+]1[O-] [Compound 359]

MIC (S. aureus NRS11 (Mec^S); [4]): 128 µg/mL (≈ 195 µM) | MIC (S. aureus NRS100 (Mec^R); [4]): 128 µg/mL (≈ 195 µM)
SMILES: CCCCOC(=O)c1ccc(NC(=O)c2c(Br)c(Br)c(Br)c(Br)c2C(=O)O)cc1 [Compound 334]

MIC (S. aureus NRS11 (Mec^S); [4]): 2000 µg/mL (≈ 5860 µM) | MIC (S. aureus NRS100 (Mec^R); [4]): 2000 µg/mL (≈ 5860 µM)
SMILES: CCCCOC(=O)c1ccc(NC(=O)c2ccccc2C(=O)O)cc1 [Compound 331]

Reference: US8859620B2, “Phthalanilate compounds and methods of use” (University of Notre Dame du Lac, priority 2009, dated 2014)
